Assay results published in patent US7511074B2, “Tetrafluorobenzyl derivatives and pharmaceutical composition for preventing and treating acute and chronic neurodegenerative diseases in central nervous system containing the same” (AmKor Pharma, Inc., priority 2002, dated 2009).
“Also recorded” adds a separate entry of the source. Read-outs that look alike come from different tables or passages of the source.

Legend:
[1] = test system: Mouse cortical cell cultures; experiment: SNP (sodium nitroprusside) cytotoxicity in mixed cortical cell cultures (LDH assay); assay type: cell-based; conditions: continuous 5 μM SNP; LDH 24 hr later
Protocol: Mouse cortical cell cultures (DIV 12-14) were exposed to continuously 5 μM sodium nitroprusside (SNP), alone (●) or with inclusion of 0.1-10 mM aspirin (◯), 1-100 μM trolox (▾), or 0.1-10 μM 2-Hydroxy-TTBA (∇). Neuronal death was analyzed 24 hr later by measuring levels of LDH released into the bathing medium, mean ±SEM (n=9-12 culture wells per condition), scaled to mean LDH efflux value 24 hr after sham wash (=0) and continuous exposure to 500 μM NMDA (=100). *, Significant difference from the vehicle control, p<0.05 using ANOVA and Student-Neuman-Keuls' test.
For mixed neuron-glia culture, mouse cerebral cortices were removed from brains of the 14-16 day-old-fetal mice (E14-16), gently triturated and plated on 24 well plates (2×10^5 cells/plate) precoated with 100 μg/ml poly-D-lysine and 4 μg/ml laminine. Cultures were maintained at 37° C. in a humidified 5% CO2 atmosphere. Plating media consist of Eagles minimal essential media (MEM, Earles salts, supplied glutamine-free) supplemented with 5% horse serum, 5% fetal bovine serum, 26.5 mM bicarbonate, 2 mM glutamine, and 21 mM glucose.
After 7-8 days in vitro (DIV 7-8), 10 μM cytosine arabinofuranoside (Ara-C) was included to halt overgrowth of glia. The drug treatment was carried on DIV 12-15 cortical cell culture. Overall neuronal cell injury was assessed by measuring amount of lactate dehydrogenase (LDH) released into the bathing medium 24 hr after neurotoxic insults as previously described [Koh and Choi, J Neurosci Methods 20:83-90, 1987].
Mixed cortical cell cultures were continuously exposed to 5 μM SNP, a nitric oxide (NO) donor, alone or with inclusion of 0.1-10 μM 2-Hydroxy-TTBA, 1-10 μM trolox or 100-10,000 μM aspirin. Neuronal cell death was analyzed 24 hr later by LDH assay. *, Significant difference from the vehicle control (SNP), p<0.05 using ANOVA and Student-Neuman-Keuls' test.

NMDA receptor = experiment: Whole cell recording of NMDA-induced inward currents in cultured cortical neurons; assay type: cell-based, mouse
Protocol: Typical NMDA-induced inward currents (NMDA currents) were evoked by applying 300 μM NMDA to cortical neurons which were held at […]. Successive application of various concentrations of 2-Hydroxy-TTBA reduced the response elicited by 300 μM NMDA in a concentration-dependent manner (n=8).
Cortical neurons were treated with 100 μM 2-Hydroxy-TTBA, washed thoroughly, and then applied with 300 μM NMDA.
Whole cell recordings were performed on cortical cell cultures at room temperature as described [Seo et al., J. Pharmacol. Exp. Ther., 299:377-384 (2001)]. Typical NMDA-induced inward currents (NMDA currents) were evoked immediately after applying 300 μM NMDA to cultured cortical neurons which were held at −70 mV.

[2] = test system: Sprague-Dawley rats, occlusion of middle cerebral artery; experiment: Transient focal cerebral ischemia (60 min MCAO), infarct volume; assay type: in vivo, rat
Protocol: Adult rats received transient cerebral ischemia by occluding right middle cerebral artery and both common carotid arteries for 60 min with intraperitoneal injections of vehicle or 50 mg/kg 2-Hydroxy-TTBA at 5 min, 30 min, or 1 hr after reperfusion. Infarct volume was analyzed 24 hr later after staining brain slices with 2% 2,3,5-triphenyltetrazolium chloride (TTC), mean ±SEM (n=8-11 rats per each condition). *, Significant difference from the vehicle control, p<0.05 using ANOVA and Student-Neuman-Keuls' test.
Adult rats received transient cerebral ischemia by occluding right middle cerebral artery and both common carotid arteries for 60 min with intraperitoneal injections of vehicle (control) or 50 or 100 mg/kg 2-Hydroxy-TTBA at 5 min after reperfusion. Infarct volume was analyzed 24 hr later after staining brain slices with 2% 2,3,5-triphenyltetrazolium chloride (TTC), mean ±SEM (n=7-8 rats per each condition). *, Significant difference from the vehicle control, p<0.05 using ANOVA and Student-Neuman-Keuls' test.
(§1) Adult rats received transient cerebral ischemia by occluding right middle cerebral artery and both common carotid arteries for 60 min, with intravenous injections of vehicle (control) or 5 mg/kg 2-Hydroxy-TTBA at 30 min after occlusion or 5 min, 30 min, 1 hr, 2 hr, or 4 hr after reperfusion. Infarct volume was analyzed 24 hr later, mean ±SEM (n=8-11 rats per each condition). *, Significant difference from the vehicle control, p<0.05 using ANOVA and Student-Neuman-Keuls' test.
as §1, with “or 1, 2.5, 5, 10 or 20” for “or 5”, “at 5” for “at 30”, “min” for “min after occlusion or 5 min, 30 min, 1 hr, 2 hr, or 4 hr”, “±SEM (n=8-10” for “±SEM (n=8-11”
as §1, with “with oral administrations” for “with intravenous injections”, “or 10 or 20” for “or 5”, “at 5” for “at 30”, “min” for “min after occlusion or 5 min, 30 min, 1 hr, 2 hr, or 4 hr”, “±SEM (n=8-10” for “±SEM (n=8-11”
Sprague-Dawley rats were anesthetized with chloral hydrate, and subjected to focal cerebral ischemia by occlusion of middle cerebral artery (MCAO) as previously described [Tamura et al., J. Cerebr. Blood Flow Metab. 1:53-60 (1981)]. Both common carotid arteries (CCAs) were exposed and right middle cerebral artery (rMCA) was exposed under the surgical microscope by making a 3 mm diameter craniotomy rostral to the foramen ovale. CCAs and rMCA were occluded with microclips. The clips were released 60 min later and restoration of blood flow in rMCA was observed under the microscope
Animals received MCAO for 60 min, alone or with administration of 2-Hydroxy-TTBA (50 mg/kg, i.p.) at indicated points of time after reperfusion. Saline was injected as a control. Animals were euthanized 24 hr later and brains removed and sectioned coronally into seven 2-mm slices in a brain matrix. […] The infarction area, outline in white, was measured (TINA image analysis system) and infarction volume was calculated by summing the infarct volume showing white of sequential 2-mm-thick section, mean ±SEM (n=8-12 rats/condition) (FIG. 8a). […]

[3] = intravenous, 5 min after reperfusion, 60 min MCAO

O=C(O)c1cc(NCc2c(F)c(F)c(C(F)(F)F)c(F)c2F)ccc1O [2-Hydroxy-TTBA, 2-hydroxy-5-(2,3,5,6-tetrafluoro-4-trifluoromethylbenzylamino)benzoic acid]
effect on SNP toxicity [1]: completely blocked
strength relative to trolox in preventing NO toxicity [1]: 100 fold
effect on holding currents (NMDA receptor; 100 μM compound alone): had no effect on the holding currents
effect of pretreatment on response to subsequent 300 μM NMDA (NMDA receptor; 100 μM compound applied alone, then 300 μM NMDA, n=6): did not influence NMDA-induced inward currents; also recorded: had little effect
Hill coefficient of dose response relation to NMDA currents (NMDA receptor; 300 μM NMDA, neurons held at −60 mV, n=8): 0.91
IC50 (NMDA receptor; 300 μM NMDA, neurons held at −60 mV, n=8, read-out: IC50 for NMDA currents (FIG. 2a legend)): ~35 µM
IC50 (NMDA receptor; 300 μM NMDA, neurons held at −70 mV, bath application, n=7-15 neurons/condition, read-out: IC50 for depression of NMDA-evoked currents): 30.6 ± 2.96 µM
time after reperfusion up to which delayed injection significantly attenuated infarct volume ([2]; 5 mg/kg intravenous, 60 min MCAO, infarct volume 24 hr later): up to 4 hr
time after reperfusion up to which delayed administration significantly reduced infarct volume ([2]; 50 mg/kg i.p., 60 min MCAO, infarct volume 24 hr later): up to 1 hr
infarct volume after oral administration ([2]; 10 or 20 mg/kg p.o. at 5 min after reperfusion, 24 hr after 60 min MCAO): reduced infarct volume
intravenous doses at which protective effects were observed [2, 3]: higher than 2.5 mg/kg
lowest intravenous dose attenuating infarct volume [2, 3]: ≥ 1 mg/kg
